Literature values as cited in paper PMC8405607 (British Journal of Cancer, 2021).

Experiments:
[1] = set-up: method as in PMID 24309210, PMID 23084521, PMID 28240971; details: liposarcoma trial; cited from earlier work
p53 = tested on: p53; set-up: method as in PMID 21643018; details: prolonged exposure; cited from earlier work

**Q.** Which results are given for `CCOc1cc(C(C)(C)C)ccc1C1=N[C@@](C)(c2ccc(Cl)cc2)[C@@](C)(c2ccc(Cl)cc2)N1C(=O)N1CCN(CCCS(C)(=O)=O)CC1` [RG7112]?
**A.** patients experiencing grade 4 neutropenia [1]: 30%; patients experiencing prolonged grade 4 thrombocytopenia [1]: 15%

**Q.** For `COc1ccc(C2=N[C@@H](c3ccc(Cl)cc3)[C@@H](c3ccc(Cl)cc3)N2C(=O)N2CCNC(=O)C2)c(OC(C)C)c1` [Nutlin-3a], which p53 mutations (p53) is on record?
**A.** increased incidence of p53 mutations
